The text below walks through data of patent US20240158368A1, “Pyrrolidine Main Protease Inhibitors as Antiviral Agents” (AbbVie Inc., priority 2022, published 2024).

One data set has as its target SARS-CoV-2 Mpro (Severe acute respiratory syndrome coronavirus 2 (2019-nCoV) (SARS-CoV-2), UniProt P0DTD1). The class given is biochemical.
A further data set addresses MERS Mpro (Middle East respiratory syndrome-related coronavirus (isolate United Kingdom/H123990006/2012) (MERS-CoV) (Betacoronavirus England 1), UniProt K9N7C7). Kind of data set: biochemical.
For another data set, the target named is OC43 Mpro (Human coronavirus OC43 (HCoV-OC43), UniProt P0C6X6). Format: biochemical.
A further data set has as its target 229E Mpro (Human coronavirus 229E (HCoV-229E), UniProt P0C6X1). The class given is biochemical.
The test system of data set [1] is SARS-CoV-2 (strain USA-WA1/2020). Kind of data set: microbe, parasite or virus in culture. The class given is cell-based. The settings on record: Severe acute respiratory syndrome coronavirus 2; HeLa-ACE2 cells; read-out: Antiviral CoV-2 EC50.
A short description of data set [2]: in vitro. The note with it: PAMPA.
Data set [3] in a line: in vitro. The note with it: rat, pH 7.4.
The nature of data set [4]: in vitro. The settings on record: human, pH 7.4.

Chain of MERS Mpro (K9N7C7 3248-3553 limits assumed): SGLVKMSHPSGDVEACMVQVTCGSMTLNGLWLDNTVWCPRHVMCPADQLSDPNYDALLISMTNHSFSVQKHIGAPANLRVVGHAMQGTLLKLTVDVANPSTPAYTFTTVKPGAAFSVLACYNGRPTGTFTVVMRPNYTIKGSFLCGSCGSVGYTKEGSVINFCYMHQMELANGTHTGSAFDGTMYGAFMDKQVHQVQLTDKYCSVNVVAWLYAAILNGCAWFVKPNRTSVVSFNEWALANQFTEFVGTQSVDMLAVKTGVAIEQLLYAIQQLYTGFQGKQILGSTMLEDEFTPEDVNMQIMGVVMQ
Chain of 229E Mpro (P0C6X1 2966-3267 limits assumed): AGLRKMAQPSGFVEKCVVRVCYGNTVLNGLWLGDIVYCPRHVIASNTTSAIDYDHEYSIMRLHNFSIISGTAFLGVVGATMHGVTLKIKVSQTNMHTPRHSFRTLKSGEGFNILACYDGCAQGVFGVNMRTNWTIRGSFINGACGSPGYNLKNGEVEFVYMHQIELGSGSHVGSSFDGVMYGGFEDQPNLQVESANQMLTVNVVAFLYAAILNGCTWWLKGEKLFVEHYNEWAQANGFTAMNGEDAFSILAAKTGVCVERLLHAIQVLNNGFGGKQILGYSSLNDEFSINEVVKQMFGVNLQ
Chain of OC43 Mpro (P0C6X6 3247-3549 limits assumed): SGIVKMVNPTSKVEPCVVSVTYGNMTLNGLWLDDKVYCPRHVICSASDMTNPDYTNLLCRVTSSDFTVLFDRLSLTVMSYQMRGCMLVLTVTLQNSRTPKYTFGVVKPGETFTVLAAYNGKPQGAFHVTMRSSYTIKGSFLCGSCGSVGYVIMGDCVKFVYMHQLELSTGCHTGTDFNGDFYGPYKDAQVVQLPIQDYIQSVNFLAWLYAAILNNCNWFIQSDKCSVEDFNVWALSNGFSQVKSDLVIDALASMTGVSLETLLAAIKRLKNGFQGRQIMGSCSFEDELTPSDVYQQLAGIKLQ

As a reminder, the EC50 is the concentration that produces a half-maximal response. Broadly, the Papp is the rate of passage across a membrane or cell layer, normalised by area and donor concentration. A low value points to poor permeation. As a reminder, the CLint scaled is a measure of how fast metabolising enzymes remove a compound, apart from limits set by blood flow. Higher therefore signals faster metabolism. On to `N#Cc1cc(C(=O)N2CCOCC2)c(N2CC[C@@H](NC(=O)c3c(F)c(=O)[nH]c4ccccc34)C2)c(C(F)(F)F)c1` [Compound 6], for which the EC50 was 0.78 nM on SARS-CoV-2 Mpro; 2.51 nM on MERS Mpro; 1.44 nM at OC43 Mpro; 2.32 nM on 229E Mpro; 21.9 nM in data set [1]. Further, the Papp in the data set “in vitro [2]” came to 3.22 ×10⁻⁶ cm/s. Also, the CLint scaled is 81.7 mL/min/kg in the data set “in vitro [3]” (microsomes) and less than 35 mL/min/kg in “in vitro [4]” (microsomes).
For `N#Cc1cc(C(=O)N2CCOCC2)c(N2CC[C@@H](NC(=O)c3cc(=O)[nH]c4c(F)cc(F)cc34)C2)c(C(F)(F)F)c1` [Compound 7], the EC50 at SARS-CoV-2 Mpro was found to be 0.43 nM; on MERS Mpro, 0.99 nM; on OC43 Mpro, 4.95 nM; on 229E Mpro, 2.76 nM; in data set [1], 25.6 nM. Further, the Papp in the data set “in vitro [2]” came out at 6.77 ×10⁻⁶ cm/s. Further, the CLint scaled in “in vitro [3]” (microsomes) is less than 58.3 mL/min/kg; in the data set “in vitro [4]” (microsomes) it was less than 35 mL/min/kg.
Consider `Cc1cc(C(=O)N[C@@H]2CCN(c3c(C(=O)N4CCOCC4)cc(C#N)cc3C(F)(F)F)C2)c(F)c(=O)[nH]1` [Compound 10], for which the 50% effective concentration (EC50) on SARS-CoV-2 Mpro turned out to be 0.54 nM; at MERS Mpro it was 1.5 nM; at OC43 Mpro, 12 nM; at 229E Mpro, 7.63 nM; in data set [1], 589 nM. Further, in “in vitro [2]”, the apparent permeability coefficient (Papp) is 0.7 ×10⁻⁶ cm/s. Also, the CLint scaled in “in vitro [3]” (microsomes) was less than 50 mL/min/kg; in the data set “in vitro [4]” (microsomes), less than 30 mL/min/kg.
As for `N#Cc1cc(C(=O)N2C[C@H]3COC[C@H]3C2)c(N2CC[C@@H](NC(=O)c3cc(=O)[nH]c4c(F)cccc34)C2)c(C(F)(F)F)c1` [Compound 18], the values for the EC50 (at MERS Mpro; in data set [1]) were 1.35 nM and 13.6 nM, respectively. The same compound had a Papp in the data set “in vitro [2]” of 7.19 ×10⁻⁶ cm/s. The values for the CLint scaled in the data set “in vitro [3]” and in “in vitro [4]” were 95 mL/min/kg and 38.3 mL/min/kg, respectively.
For `N#Cc1cc(C(=O)N2CCNC(=O)C2)c(N2CC[C@@H](NC(=O)c3cc(=O)[nH]c4c(F)cccc34)C2)c(C(F)(F)F)c1` [Compound 27], the EC50 at SARS-CoV-2 Mpro came out at 0.63 nM; at MERS Mpro it was 1.36 nM; at OC43 Mpro it was 8.72 nM; in data set [1] it was 2800 nM. Moreover, the Papp in “in vitro [2]” came out at 0.11 ×10⁻⁶ cm/s. For the same compound, the CLint scaled in the data set “in vitro [3]” (microsomes) was less than 58.3 mL/min/kg; in “in vitro [4]” (microsomes), less than 35 mL/min/kg.
Take `CO[C@H]1CN(c2c(C(=O)N3CCOCC3)cc(C#N)cc2C(F)(F)F)C[C@@H]1NC(=O)c1cc(=O)[nH]c2c(F)cccc12` [Compound 32]: the EC50 at SARS-CoV-2 Mpro came out at 0.45 nM; at MERS Mpro it was 1.06 nM; on OC43 Mpro it was 1.17 nM; at 229E Mpro, 1.78 nM; in data set [1], 18.6 nM. For the same compound, the Papp in the data set “in vitro [2]” was found to be 7.29 ×10⁻⁶ cm/s. The CLint scaled in “in vitro [3]” (microsomes) was less than 70 mL/min/kg; in “in vitro [4]” (microsomes) it was 48.3 mL/min/kg.
Consider `N#Cc1cc(C(=O)N2CCOCC2)c(N2C[C@H](NC(=O)c3cc(=O)[nH]c4c(F)cc(F)cc34)CC2=O)c(C(F)(F)F)c1` [Compound 33], for which the EC50 on SARS-CoV-2 Mpro is 0.92 nM; on MERS Mpro, 2.49 nM; at OC43 Mpro, 171 nM; on 229E Mpro, 38.5 nM; in data set [1] it was 174 nM. In addition, in “in vitro [2]”, the Papp was 1.12 ×10⁻⁶ cm/s. For the same compound, the CLint scaled in “in vitro [3]” (microsomes) is less than 56.7 mL/min/kg; in the data set “in vitro [4]” (microsomes) it was less than 35 mL/min/kg.
Turning to `CN1CCN(C(=O)c2cc(C#N)cc(C3CC3)c2N2CC[C@@H](NC(=O)c3cc(=O)[nH]c4c(F)cccc34)C2)CC1` [Compound 41], the EC50 at SARS-CoV-2 Mpro turned out to be 0.45 nM; on MERS Mpro it was 0.82 nM; at OC43 Mpro, 0.69 nM; at 229E Mpro, 2.16 nM. The Papp in the data set “in vitro [2]” was 0.59 ×10⁻⁶ cm/s. Further, the CLint scaled was 280 mL/min/kg in the data set “in vitro [3]” (microsomes) and 147 mL/min/kg in “in vitro [4]” (microsomes).
For the compound `O=C(N[C@@H]1CCN(c2c(OC(F)(F)F)cc(Cl)cc2C(=O)N2CCOCC2)C1)c1cc(=O)[nH]c2c(F)cccc12` [Compound 44], the EC50 on SARS-CoV-2 Mpro worked out at 0.53 nM; at MERS Mpro, 1.07 nM; on OC43 Mpro it was 1.98 nM; on 229E Mpro it was 3.18 nM. The same compound returned a Papp in “in vitro [2]” of 15.3 ×10⁻⁶ cm/s. Also, the CLint scaled in the data set “in vitro [3]” (microsomes) was 292 mL/min/kg; in “in vitro [4]” (microsomes) it was 41.7 mL/min/kg.
With `O=C(N[C@@H]1CCN(c2c(C(=O)N3CCOCC3)cc(Br)cc2C(F)(F)F)C1)c1c(F)c(=O)[nH]c2ccccc12` [Compound 53], the EC50 at SARS-CoV-2 Mpro was 0.6 nM; on MERS Mpro, 1.86 nM; on OC43 Mpro, 0.71 nM; on 229E Mpro it was 1.98 nM. Moreover, in “in vitro [2]”, the Papp is 8.9 ×10⁻⁶ cm/s. For the same compound, the CLint scaled in the data set “in vitro [3]” (microsomes) is 615 mL/min/kg; in the data set “in vitro [4]” (microsomes) it was 217 mL/min/kg.
As to `O=C(N[C@@H]1CCN(c2c(C(=O)N3CCCCC3)cc(Br)cc2C(F)(F)F)C1)c1cc(=O)[nH]c2c(F)cccc12` [Compound 64], the EC50 was determined as 0.53 nM at SARS-CoV-2 Mpro, 1.38 nM on MERS Mpro, 2.87 nM on OC43 Mpro and 9.61 nM on 229E Mpro. This compound had a Papp in the data set “in vitro [2]” of 14.9 ×10⁻⁶ cm/s. The CLint scaled in “in vitro [3]” (microsomes) is 1070 mL/min/kg; in the data set “in vitro [4]” (microsomes) it was 272 mL/min/kg.
Regarding `O=C(N[C@@H]1CCN(c2c(C(=O)N3CC4COCC4C3)cc(Br)cc2C(F)(F)F)C1)c1cc(=O)[nH]c2c(F)cccc12` (some centres unmarked) [Compound 66], the EC50 at SARS-CoV-2 Mpro stood at 0.48 nM; at MERS Mpro, 1.28 nM; at OC43 Mpro, 2.06 nM; on 229E Mpro it was 5.78 nM. Also, the apparent permeability coefficient (Papp) in the data set “in vitro [2]” was 15 ×10⁻⁶ cm/s. The results for the CLint scaled in the data set “in vitro [3]” (microsomes) and in “in vitro [4]” (microsomes) were 607 mL/min/kg and 297 mL/min/kg, respectively.
As to `O=C(N[C@@H]1CCN(c2c(C(=O)N3CCCC3)cc(Br)cc2C(F)(F)F)C1)c1cc(=O)[nH]c2c(F)cccc12` [Compound 68], the EC50 was found to be 0.6 nM at SARS-CoV-2 Mpro, 1.83 nM on MERS Mpro, 3.55 nM at OC43 Mpro and 10.4 nM on 229E Mpro. Also, the Papp in “in vitro [2]” is 14.7 ×10⁻⁶ cm/s. Besides, the results for the CLint scaled in “in vitro [3]” (microsomes) and in the data set “in vitro [4]” (microsomes) were 1120 mL/min/kg and 317 mL/min/kg, respectively.
On to `O=C(N[C@@H]1CCN(c2c(C(=O)N3CCC(F)(F)C3)cc(Br)cc2C(F)(F)F)C1)c1cc(=O)[nH]c2c(F)cccc12` [Compound 69], for which the EC50 at SARS-CoV-2 Mpro came to 0.67 nM; on MERS Mpro, 1.76 nM; at OC43 Mpro it was 4.92 nM; at 229E Mpro, 15.5 nM. This compound gave a Papp in “in vitro [2]” of 14.5 ×10⁻⁶ cm/s. The CLint scaled in “in vitro [3]” (microsomes) was 1040 mL/min/kg; in “in vitro [4]” (microsomes) it was 303 mL/min/kg.
Turning to `O=C(N[C@@H]1CCN(c2c(C(=O)N3CC(F)(F)C3)cc(Br)cc2C(F)(F)F)C1)c1cc(=O)[nH]c2c(F)cccc12` [Compound 70], the EC50 on SARS-CoV-2 Mpro stood at 1.02 nM; on MERS Mpro, 1.96 nM; on OC43 Mpro it was 11.1 nM; on 229E Mpro, 33.7 nM. The compound further yielded a Papp in “in vitro [2]” of 13.9 ×10⁻⁶ cm/s. Also, the CLint scaled in the data set “in vitro [3]” (microsomes) is 845 mL/min/kg; in “in vitro [4]” (microsomes) it was 205 mL/min/kg.
As for `COCCN(C)C(=O)c1cc(Br)cc(C(F)(F)F)c1N1CC[C@@H](NC(=O)c2cc(=O)[nH]c3c(F)cccc23)C1` [Compound 72], the EC50 at SARS-CoV-2 Mpro was found to be 1.11 nM; on MERS Mpro, 2.83 nM; on OC43 Mpro, 19.2 nM; at 229E Mpro, 39 nM. This compound also displayed a Papp in the data set “in vitro [2]” of 19.6 ×10⁻⁶ cm/s. For the same compound, the intrinsic metabolic clearance (CLint scaled) is 1280 mL/min/kg in the data set “in vitro [3]” (microsomes) and 562 mL/min/kg in “in vitro [4]” (microsomes).
`O=C(N[C@@H]1CC(=O)N(c2c(C(=O)N3CCOCC3)cc(Br)cc2C(F)(F)F)C1)c1c(F)c(=O)[nH]c2c(F)c(F)ccc12` [Compound 77]: the EC50 on SARS-CoV-2 Mpro was 1.21 nM; at MERS Mpro, 1.69 nM; on OC43 Mpro, 28.3 nM; on 229E Mpro, 124 nM. This compound had a Papp in “in vitro [2]” of 3.46 ×10⁻⁶ cm/s. Also, the CLint scaled in the data set “in vitro [3]” (microsomes) is less than 65 mL/min/kg; in “in vitro [4]” (microsomes), less than 38.3 mL/min/kg.
